“Also recorded” adds a separate entry of the source. Where no end group is shown, it is not given here.
Key:
Format in all cases: binding, mice
[1] = test system: biotinylated monoclonal antibody specific for DAEFRH (natural N-terminal Aβ42 sequence); experiment: Inhibition assay for additional mimotopes (competition ELISA), Example 4 (FIGS. 4 and 5); details: for inhibition of binding of the monoclonal antibody to the original epitope (in words) / IC50 of inhibition of monoclonal antibody recognition of the original epitope: FIGS. 4 and 5; for Inhibitory capacity of mimotopes (Table 2): summary grade: strong, intermediate, weak, none; for IC50 of inhibition of monoclonal antibody recognition of the original epitope: plate-bound DAEFRH-BSA 0.1 μg/ml, peptides at different concentrations, 20 min, 37° C.
Experimental: FIGS. 4 and 5 describe the results of inhibition assays performed with mimotope peptides included in and obtained from the 5 libraries (as described). The mimotope peptides compete with the original epitope for recognition by the monoclonal antibody. Original epitope and mimotope peptides contain an additional C at the C-terminus (position 7) for coupling to a protein carrier (if desired).
(§1) After blocking with PBS/BSA 1% (200 μl/well, 12 h, 4° C.), the plates are washed 3× times with PBS/Tween. Then, biotinylated monoclonal antibody (1:2000, 50 μl/well) and peptides (50 μl/well) at different concentrations are added for 20 min. at 37° C. The plates are washed 3× times with PBS/Tween and are incubated with horseradish peroxidase (HRP)-labeled streptavidin (100 μl/well, 30 min, RT). The plates are washed 5× times with PBS/Tween and are incubated with ABTS H2O2 (0.1% w/v, 10 to 45 min) and the reaction is stopped with citric acid followed by photometric evaluation (wavelength 405 nm).

[2] = test system: biotinylated monoclonal antibody specific for DAEFRH (natural N-terminal Aβ42 sequence); experiment: Inhibition assay (competition ELISA): mimotope peptides compete with plate-bound DAEFRH-BSA for the monoclonal antibody, Example 3 (FIGS. 2 and 3); details: for inhibition of binding of the monoclonal antibody to the original epitope (in words): peptides at 50 to 0.0005 μg/ml, FIGS. 2 and 3; for Inhibitory capacity of mimotopes (Table 1): summary grade: strong, intermediate, weak, none
Experimental: FIGS. 2 and 3 describe the results of inhibition assays performed with mimotope peptides included in and obtained from the 5 libraries (as described). The mimotope peptides compete with the original epitope for recognition by the monoclonal antibody. Original epitope and mimotope peptides contain an additional C at the C-terminus for coupling to a protein carrier (if desired).
as §1, with “50, 5, 0.5, 0.05, 0.005, and 0.0005 μg/ml” for “different concentrations”, “ABTS+H2O2” for “ABTS H2O2”

[3] = test system: biotinylated DAEFRH-specific mAb; experiment: ELISA with peptide libraries: detection of mimotopes by the DAEFRH-specific mAb; details: mimotopes from peptide libraries 1, 2 and 3
Experimental: The ELISA with each of the peptide libraries have been carried out following standard protocols:
The peptide library is dissolved in 100% DMSO (final concentration 10 mg/ml).
The peptide solution is further diluted in PBS.
The peptide mixture is coated overnight (4° C.) onto ELISA plates (Nunc Maxisorp, Germany), starting with 500 μg/well, and titrated to 100 ng/well.
The plates are washed 3× times with PBS/Tween 20 (0.1% v/v).
The plates are blocked with PBS/BSA (2 h at room temperature).
The plates are washed 3× times with PBS/Tween.
The plates are incubated with biotinylated DAEFRH-specific mAb (DAEFRH sequence disclosed as SEQ ID NO: 1) (10 μg/ml in PBS) for 4 h at room temperature.
The plates are incubated with streptavidin-horseradish-peroxidase (30 min at room temperature).
The plates are washed 5× times with PBS/Tween.
The plates are incubated with ABTS+H2O2 (0.1% w/v; 10 to 45 min) and the reaction is stopped with citric acid followed by photometric evaluation (wavelength 405 nm).

| Molecule | inhibition of binding of the monoclonal antibody to the original epitope (in words) [1] | Inhibitory capacity of mimotopes (Table 2) [1] | inhibition of binding of the monoclonal antibody to the original epitope (in words) [2] | Inhibitory capacity of mimotopes (Table 1) [2] | also measured |
| --- | --- | --- | --- | --- | --- |
| CC[C@H](C)[C@H](NC(=O)[C@H](CCCNC(=N)N)NC(=O)[C@H](CC(C)C)NC(=O)[C@H](CCC(=O)O)NC(=O)[C@H](CCCNC(=N)N)NC(=O)[C@@H](N)CC(=O)O)C(=O)N[C@@H](CS)C(=O)O [Peptide 1235, DRELRI] | block epitope recognition | strong |  |  |  |
| CC[C@H](C)[C@H](NC(=O)[C@H](CCCCN)NC(=O)[C@H](CC(C)C)NC(=O)[C@H](CCC(=O)O)NC(=O)[C@H](CCCCN)NC(=O)[C@@H](N)CC(=O)O)C(=O)N[C@@H](CS)C(=O)O [Peptide 1236, DKELKI] | block epitope recognition | weak |  |  |  |
| CC[C@H](C)[C@H](NC(=O)[C@H](CCCCN)NC(=O)[C@H](CC(C)C)NC(=O)[C@H](CCC(=O)O)NC(=O)[C@H](CCCNC(=N)N)NC(=O)[C@@H](N)CC(=O)O)C(=O)N[C@@H](CS)C(=O)O [Peptide 1237, DRELKI] | block epitope recognition | weak |  |  |  |
| N=C(N)NCCC[C@H](NC(=O)[C@H](Cc1ccccc1)NC(=O)[C@H](CCC(=O)O)NC(=O)[C@H](Cc1ccc(O)cc1)NC(=O)[C@@H](N)CCC(=O)O)C(=O)NCC(=O)N[C@@H](CS)C(=O)O [Peptide 1239, EYEFRG] | block epitope recognition | intermediate |  |  | IC50 of inhibition of monoclonal antibody recognition of the original epitope [1]: more than 0.5 μg/ml |
| C[C@H](NC(=O)[C@H](CC(=O)O)NC(=O)[C@H](CCCNC(=N)N)NC(=O)[C@H](Cc1ccccc1)NC(=O)[C@H](CCC(=O)O)NC(=O)[C@H](Cc1c[nH]c2ccccc12)NC(=O)[C@@H](N)CC(=O)O)C(=O)N[C@@H](CS)C(=O)O [Peptide 1241, DWEFRDA] | block epitope recognition | strong |  |  |  |
| CC[C@H](C)[C@H](NC(=O)[C@H](CCCNC(=N)N)NC(=O)[C@H](CC(C)C)NC(=O)[C@H](CCC(=O)O)NC(=O)[C@H](CCCCN)NC(=O)[C@@H](N)CC(=O)O)C(=O)N[C@@H](CS)C(=O)O [Peptide 3001, DKELRI] |  |  | block epitope recognition | strong |  |
| CC[C@H](C)[C@H](NC(=O)[C@H](CCCNC(=N)N)NC(=O)[C@H](CC(C)C)NC(=O)[C@H](CCC(=O)O)NC(=O)[C@H](Cc1c[nH]c2ccccc12)NC(=O)[C@@H](N)CC(=O)O)C(=O)N[C@@H](CS)C(=O)O [Peptide 3002, DWELRI] |  |  | block epitope recognition | intermediate |  |
| C[C@H](NC(=O)[C@@H](N)Cc1ccc(O)cc1)C(=O)N[C@@H](CCC(=O)O)C(=O)N[C@@H](Cc1ccccc1)C(=O)N[C@@H](CCCNC(=N)N)C(=O)NCC(=O)N[C@@H](CS)C(=O)O [Peptide 3005, YAEFRG] |  |  | block epitope recognition | intermediate |  |
| C[C@H](NC(=O)[C@@H](N)CCC(=O)O)C(=O)N[C@@H](CCC(=O)O)C(=O)N[C@@H](Cc1ccccc1)C(=O)N[C@@H](CCCNC(=N)N)C(=O)NCC(=O)N[C@@H](CS)C(=O)O [Peptide 3006, EAEFRG] |  |  | block epitope recognition | strong |  |
| N=C(N)NCCC[C@H](NC(=O)[C@H](Cc1ccccc1)NC(=O)[C@H](CCC(=O)O)NC(=O)[C@H](Cc1ccc(O)cc1)NC(=O)[C@@H](N)CC(=O)O)C(=O)NCC(=O)N[C@@H](CS)C(=O)O [Peptide 3007, DYEFRG] |  |  | block epitope recognition | strong |  |
| CC(C)C[C@H](NC(=O)[C@@H](N)CCC(=O)O)C(=O)N[C@@H](CCC(=O)O)C(=O)N[C@@H](Cc1ccccc1)C(=O)N[C@@H](CCCNC(=N)N)C(=O)NCC(=O)N[C@@H](CS)C(=O)O [Peptide 3008, ELEFRG] |  |  |  | weak |  |
| N=C(N)NCCC[C@H](NC(=O)[C@H](Cc1ccccc1)NC(=O)[C@H](CCC(=O)O)NC(=O)[C@H](Cc1ccccc1)NC(=O)[C@@H](N)CO)C(=O)NCC(=O)N[C@@H](CS)C(=O)O [Peptide 3009, SFEFRG] |  |  |  | weak |  |
| C[C@@H](O)[C@H](NC(=O)[C@H](CCCNC(=N)N)NC(=O)[C@H](Cc1ccccc1)NC(=O)[C@H](CCC(=O)O)NC(=O)[C@H](Cc1c[nH]c2ccccc12)NC(=O)[C@@H](N)CO)C(=O)N[C@@H](CS)C(=O)O [Peptide 4002, SWEFRT] | block epitope recognition | strong |  |  | IC50 of inhibition of monoclonal antibody recognition of the original epitope [1]: less than 0.4 μg/ml |
| DAEFRH (not fully specified (C-terminus)) [Peptide 1737, reference compound] | inhibits recognition by the monoclonal antibody; also recorded: can successfully compete |  | inhibits recognition by the monoclonal antibody; also recorded: can successfully compete |  |  |
| DIDYHR |  |  |  |  | detection by the monoclonal antibody produced according to example 1 [3]: can be detected |
| DIDYRR [DLDYRR (SEQ ID NO: 97)] |  |  |  |  | detection by the monoclonal antibody produced according to example 1 [3]: can be detected |
| DIGWRG [Peptide 3011] |  |  | not inhibitory at the concentrations tested | none |  |
| DISFRG [Peptide 3010] |  |  | not inhibitory at the concentrations tested | none |  |
| DLDYHR |  |  |  |  | detection by the monoclonal antibody produced according to example 1 [3]: can be detected |
| DLDYRR [DLDYRR (SEQ ID NO: 98)] |  |  |  |  | detection by the monoclonal antibody produced according to example 1 [3]: can be detected |
| DVDYHR |  |  |  |  | detection by the monoclonal antibody produced according to example 1 [3]: can be detected |
| DVDYRR |  |  |  |  | detection by the monoclonal antibody produced according to example 1 [3]: can be detected |
| EIDYHR |  |  |  |  | detection by the monoclonal antibody produced according to example 1 [3]: can be detected |
| ELDYHR |  |  |  |  | detection by the monoclonal antibody produced according to example 1 [3]: can be detected |
| GREFRN [Peptide 4003] | block epitope recognition | weak |  |  | concentration at which the peptide is only inhibitory ([1]; FIG. 4): 10 µg/mL |
| KKELRI [Peptide 1234] | hardly inhibitory at the concentrations tested | none |  |  |  |
| WHWSWR [Peptide 4004] | not able to inhibit binding of the monoclonal antibody to the original epitope | none |  |  |  |
| YREFFI [Peptide 3003] |  |  | not able to inhibit binding of the monoclonal antibody to the original epitope | none |  |
| YREFRI [Peptide 3004] |  |  | block epitope recognition | weak | concentration at which the peptide is only inhibitory ([2]; FIG. 2): 50 µg/mL |
